Data set [1] concerns the target PI3Kα (Homo sapiens, UniProt P42336). The data set can be described thus: Kinase-Glo Luminescent Kinase Assay, PI3Kα. It counts as biochemical.
Data set [2] deals with A549 (human lung cancer cells). The data set can be described thus: MTT assay, A549. The format is cell-based. Conditions: 72 h. How it is done: (§1) 1. Sample preparation: After dissolved with DMSO (Merck), PBS (−) was added to make 1000 μg/ml solution or a uniform suspension, and then diluted with PBS (−) containing the DMSO. Doxorubicin (DOX) was used as the positive control drug.
(§2) 2. Cell Line • 1) A549 (human lung cancer cells); 2) HCT116 (human colon cancer cells); 3) HepG2 (human hepatoma cells); 4) ZR-75-30 (human breast cancer cells); 5) U87MG (human brain star glioblastoma)
(§3) DMEM+5-10% FBS+double resistant
(§4) MTT assay. 100 μl cell suspension was added at a concentration of 4˜5×10^4 cells/ml to each well of a 96-well plate, and was set at 37° C., 5% CO2 in the incubator. After 24 h, the sample solution was added, 10 μl/hole, double wells were set, 37° C., acting for 72 h at 5% CO2. […] of 5 mg/ml was added to each well, the dissolving liquid was added after acted for 4 h, 100 μl/hole, kept in the incubator, and read 570 nm OD with MK-2 automatic microplate reader after dissolution.

Data set [3] relates to HCT116 (human colon cancer cells). Nature of the data set: MTT assay, HCT116. It counts as cell-based. Conditions: HCT-116, 72 h. Background: Formazan colour is commonly taken as a measure of viable cells.
Data set [4] has as its system U87MG (human brain star glioblastoma). Nature of the data set: MTT assay, U87MG. It counts as cell-based. The settings on record: U-87 MG, 72 h. The method, then: as §1, §2, §3, §4
Data set [5] has as its system HepG2 (human hepatoma cells). Nature of the data set: MTT assay, HepG2. It counts as cell-based. Conditions: 72 h. How it is done:
as §1, §2, §3, §4

In brackets after ≈: the same amount, converted by molar mass.

Chain of PI3Kα (P42336 whole entry, species assumed): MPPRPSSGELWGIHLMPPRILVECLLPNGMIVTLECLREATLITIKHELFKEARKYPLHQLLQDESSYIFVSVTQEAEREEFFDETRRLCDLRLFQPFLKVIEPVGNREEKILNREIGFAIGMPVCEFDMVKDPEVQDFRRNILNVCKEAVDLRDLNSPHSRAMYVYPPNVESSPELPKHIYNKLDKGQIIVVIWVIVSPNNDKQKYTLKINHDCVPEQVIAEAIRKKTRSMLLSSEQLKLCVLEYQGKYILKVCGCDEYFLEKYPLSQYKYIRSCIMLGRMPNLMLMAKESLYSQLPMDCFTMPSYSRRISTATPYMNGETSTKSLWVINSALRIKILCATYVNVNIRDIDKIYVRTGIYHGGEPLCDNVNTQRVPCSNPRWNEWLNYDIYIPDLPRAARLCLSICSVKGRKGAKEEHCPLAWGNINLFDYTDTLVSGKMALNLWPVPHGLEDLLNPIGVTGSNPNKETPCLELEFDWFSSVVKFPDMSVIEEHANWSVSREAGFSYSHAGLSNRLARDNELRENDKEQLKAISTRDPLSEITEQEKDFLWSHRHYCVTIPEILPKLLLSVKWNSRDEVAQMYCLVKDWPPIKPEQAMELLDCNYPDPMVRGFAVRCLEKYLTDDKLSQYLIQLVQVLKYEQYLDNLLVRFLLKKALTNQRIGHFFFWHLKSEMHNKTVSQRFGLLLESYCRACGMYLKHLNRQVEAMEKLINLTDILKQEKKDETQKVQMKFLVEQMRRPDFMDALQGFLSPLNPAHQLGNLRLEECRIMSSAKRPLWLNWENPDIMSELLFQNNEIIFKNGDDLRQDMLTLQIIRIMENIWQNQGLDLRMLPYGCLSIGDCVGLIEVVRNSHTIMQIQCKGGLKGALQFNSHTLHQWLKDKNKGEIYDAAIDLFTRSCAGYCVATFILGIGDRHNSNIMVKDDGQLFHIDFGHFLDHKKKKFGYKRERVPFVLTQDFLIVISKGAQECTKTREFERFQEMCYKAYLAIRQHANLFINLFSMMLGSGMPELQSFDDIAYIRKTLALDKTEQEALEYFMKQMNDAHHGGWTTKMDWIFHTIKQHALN
Chain of PI3Kα (P27986 whole entry partner, species assumed): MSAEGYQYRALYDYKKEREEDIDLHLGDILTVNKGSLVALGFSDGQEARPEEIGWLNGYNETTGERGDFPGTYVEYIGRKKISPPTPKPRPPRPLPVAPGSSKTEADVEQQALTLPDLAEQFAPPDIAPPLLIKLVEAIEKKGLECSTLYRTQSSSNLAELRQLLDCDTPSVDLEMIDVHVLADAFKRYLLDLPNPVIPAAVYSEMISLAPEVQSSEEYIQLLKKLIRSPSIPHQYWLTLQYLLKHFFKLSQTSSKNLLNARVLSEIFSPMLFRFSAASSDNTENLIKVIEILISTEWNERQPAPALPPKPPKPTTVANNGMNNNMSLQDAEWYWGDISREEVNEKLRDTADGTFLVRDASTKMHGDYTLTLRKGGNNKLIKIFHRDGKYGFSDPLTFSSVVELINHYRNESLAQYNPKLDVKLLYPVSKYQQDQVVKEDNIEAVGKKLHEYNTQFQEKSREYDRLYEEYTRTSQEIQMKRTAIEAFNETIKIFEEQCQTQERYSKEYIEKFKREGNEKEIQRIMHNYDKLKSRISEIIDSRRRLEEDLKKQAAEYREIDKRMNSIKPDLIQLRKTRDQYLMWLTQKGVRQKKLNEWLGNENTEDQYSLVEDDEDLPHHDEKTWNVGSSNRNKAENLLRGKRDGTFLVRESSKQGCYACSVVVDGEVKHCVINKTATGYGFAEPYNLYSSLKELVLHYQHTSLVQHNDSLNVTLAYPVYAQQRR

With `COc1ncc(-c2ccc3nccc(-c4ccc(C(=O)N5CCCC5)cc4)c3c2)cc1NS(=O)(=O)c1ccc(F)cc1F` [Compound 11, N-(2-methoxy-5-(4-(4-(pyrrolidinyl-1-carbonyl)phenyl)quinolin-6-yl)pyridin-3-yl)-2,4-difluorobenzenesulfonamide], the melting point was 115 to 117 °C. The same compound showed a half-maximal inhibitory concentration (IC50) in data set [1] of 0.7 nM. Further, the IC50 in data set [2] was 0.048 µg/mL (≈ 0.0799 µM). In data set [3], this compound displayed a concentration for half-maximal inhibition (IC50) of 0.221 µg/mL (≈ 0.368 µM). The compound also came in with an IC50 in data set [4] of 0.284 µg/mL (≈ 0.473 µM).
For `COc1ncc(-c2ccc3nccc(-c4ccc(CN5CCCC5)cc4)c3c2)cc1NS(=O)(=O)c1ccc(F)cc1F` [Compound 12] the same measures were 129 to 130 °C, 1.4 nM, 0.022 µg/mL (≈ 0.0375 µM), 0.011 µg/mL (≈ 0.0188 µM) and 0.093 µg/mL (≈ 0.159 µM).
Taken in the same sequence, the figures for `COc1ncc(-c2ccc3nccc(-c4ccc(CN5CCOCC5)cc4)c3c2)cc1NS(=O)(=O)c1ccc(F)cc1F` [Compound 13, N-(5-(4-(4-((morpholino-1-yl)methyl)phenyl)quinolin-6-yl)-2-methoxypyridine-3-yl)-2,4-difluorobenzenesulfonamide] were 97 to 99 °C, 1.1 nM, 0.042 µg/mL (≈ 0.0697 µM), 0.00196 µg/mL (≈ 0.00325 µM) and 0.091 µg/mL (≈ 0.151 µM).
As to `COc1ncc(-c2ccc3nccc(-c4ccc(CN5CCCCC5)cc4)c3c2)cc1NS(=O)(=O)c1ccc(F)cc1F` [Compound 14, N-(5-(4-(4-((piperidine-1-yl)methyl)phenyl)quinolin-6-yl)-2-methoxypyridine-3-yl)-2,4-difluorobenzenesulfonamide], the IC50 was found to be 1.2 nM in data set [1], 0.00934 µg/mL (≈ 0.0155 µM) in data set [2], 0.0205 µg/mL (≈ 0.0341 µM) in data set [3] and 0.019 µg/mL (≈ 0.0316 µM) in data set [4].
Compound `COc1ncc(-c2ccc3nccc(-c4ccc(Cn5ccnc5)cc4)c3c2)cc1NS(=O)(=O)c1ccc(F)cc1F` [Compound 15, N-(5-(4-(4-((1H-imidazole-1-yl)methyl)phenyl)quinolin-6-yl)-2-methoxypyridine-3-yl)-2,4-difluorobenzenesulfonamide] had a melting point of 108 to 109 °C. For the same compound, half-maximal inhibition in data set [1] (IC50) was put at 1.1 nM. The half-maximal inhibitory concentration (IC50) in data set [2] amounted to 0.018 µg/mL (≈ 0.0308 µM). Moreover, 0.019 µg/mL (≈ 0.0326 µM) corresponded to half-maximal inhibition in data set [3] (IC50). In addition, in data set [4], the IC50 was 0.35 µg/mL (≈ 0.6 µM).
Taken in the same sequence, the figures for `COc1ncc(-c2ccc3nccc(-c4ccc(Cn5ccnc5C)cc4)c3c2)cc1NS(=O)(=O)c1ccc(F)cc1F` [Compound 16, N-(5-(4-(4-((2-methyl-1H-imidazole-1-yl)methyl)phenyl)quinolin-6-yl)-2-methoxypyridine-3-yl)-2,4-difluorobenzenesulfonamide] were 110 to 111 °C, 0.95 nM, 0.00608 µg/mL (≈ 0.0102 µM), 0.00846 µg/mL (≈ 0.0142 µM) and 0.024 µg/mL (≈ 0.0402 µM).
Consider `COc1ncc(-c2ccc3nccc(-c4ccc(CN5CCN(C(C)C)CC5)cc4)c3c2)cc1NS(=O)(=O)c1ccc(F)cc1F` [Compound 18, N-(5-(4-(4-((4-isopropylpiperazine-1-yl)methyl)phenyl)quinolin-6-yl)-2-methoxypyridine-3-yl)-2,4-difluorobenzenesulfonamide], for which the IC50 in data set [1] turned out to be 1.7 nM; in data set [2], 0.00124 µg/mL (≈ 0.00193 µM); in data set [3] it was 0.0159 µg/mL (≈ 0.0247 µM); in data set [4], 0.301 µg/mL (≈ 0.468 µM).
For the compound `COc1ncc(-c2ccc3nccc(-c4ccc(CN5CCN(CCO)CC5)cc4)c3c2)cc1NS(=O)(=O)c1ccc(F)cc1F` [Compound 19, N-(5-(4-(4-((4-(2-hydroxyethyl)piperazine-1-yl)methyl)phenyl)quinolin-6-yl)-2-methoxypyridine-3-yl)-2,4-difluorobenzenesulfonamide], the IC50 came out at 1.2 nM in data set [1], 0.016 µg/mL (≈ 0.0248 µM) in data set [2], 0.014 µg/mL (≈ 0.0217 µM) in data set [3] and 0.137 µg/mL (≈ 0.212 µM) in data set [4].
As to `COc1ncc(-c2ccc3nccc(-c4ccc(CN(CCO)CCO)cc4)c3c2)cc1NS(=O)(=O)c1ccc(F)cc1F` [Compound 20, N-(5-(4-(4-((di(2-hydroxyethyl)amino)methyl)phenyl)quinolin-6-yl)-2-methoxypyridine-3-yl)-2,4-difluorobenzenesulfonamide], the melting point lay within 90 to 91 °C. Further, in data set [1], 1.3 nM corresponded to half-maximal inhibition (IC50). For the same compound, in data set [2], the IC50 is 0.00174 µg/mL (≈ 0.0028 µM). In data set [3], this compound returned an IC50 of 0.00237 µg/mL (≈ 0.00382 µM). For the same compound, the IC50 in data set [4] was determined as 0.089 µg/mL (≈ 0.143 µM).
Taken in the same sequence, the figures for `COc1ncc(-c2ccc3nccc(-c4ccc(Cn5cccn5)cc4)c3c2)cc1NS(=O)(=O)c1ccc(F)cc1F` [Compound 21, N-(5-(4-(4-((1H-pyrazole-1-yl)methyl)phenyl)quinolin-6-yl)-2-methoxypyridine-3-yl)-2,4-difluorobenzenesulfonamide] were 93 to 95 °C, 1.1 nM, 0.018 µg/mL (≈ 0.0308 µM), 0.031 µg/mL (≈ 0.0531 µM) and 0.935 µg/mL (≈ 1.6 µM).
In turn, `CCN(Cc1ccc(-c2ccnc3ccc(-c4cnc(OC)c(NS(=O)(=O)c5ccc(F)cc5F)c4)cc23)cc1)C1CCCCC1` [Compound 22, N-(5-(4-(4-((cyclohexyl(ethyl)amino)methyl)phenyl)quinolin-6-yl)-2-methoxypyridine-3-yl)-2,4-difluorobenzenesulfonamide] yielded a melting point of 87 to 88 °C. The IC50 in data set [1] was found to be 1.6 nM. In addition, the IC50 in data set [2] came out at 0.013 µg/mL (≈ 0.0202 µM). Moreover, in data set [3], inhibition was half-maximal at 0.143 µg/mL (≈ 0.222 µM) (IC50). The compound further came in with an IC50 in data set [4] of 0.93 µg/mL (≈ 1.45 µM).
For the compound `COc1ncc(-c2ccc3nccc(-c4ccc(CN5CCN(C)CC5)cc4)c3c2)cc1NS(=O)(=O)c1ccc(F)cc1F` [Compound 23, N-(5-(4-(4-((4-methylpiperazine-1-yl)methyl)phenyl)quinolin-6-yl)-2-methoxypyridine-3-yl)-2,4-difluorobenzenesulfonamide], the IC50 in data set [1] was 1.3 nM; in data set [2], 0.00818 µg/mL (≈ 0.0133 µM); in data set [3], 0.027 µg/mL (≈ 0.0439 µM); in data set [4] it was 0.207 µg/mL (≈ 0.336 µM).
In the case of `COc1ncc(-c2ccc3nccc(-c4ccc(CN(C)CCN(C)C)cc4)c3c2)cc1NS(=O)(=O)c1ccc(F)cc1F` [Compound 24], the melting point was in the range of 87 to 88 °C. Inhibition in data set [1] was half-maximal at 2.5 nM (IC50). This compound returned an IC50 in data set [2] of 0.00804 µg/mL (≈ 0.013 µM). Besides, the IC50 in data set [3] is 0.032 µg/mL (≈ 0.0518 µM). The compound further displayed an IC50 in data set [4] of 0.157 µg/mL (≈ 0.254 µM).
`COc1ncc(-c2ccc3nccc(-n4cncn4)c3c2)cc1NS(=O)(=O)c1ccc(F)cc1` [Compound 25, N-(5-(4-(1H-1,2,4-triazole-1-yl)quinolin-6-yl)-2-methoxypyridine-3-yl)-4-fluorobenzenesulfonamide] showed a melting point of 122 to 124 °C. In addition, in data set [1], it took 1.2 nM to reach half-maximal inhibition (IC50). This compound also came in with an IC50 in data set [2] of 1.02 µg/mL (≈ 2.14 µM). In addition, 1.04 µg/mL (≈ 2.18 µM) corresponded to half-maximal inhibition in data set [3] (IC50). Further, in data set [5], the midpoint of inhibition, the IC50, lay at 9.49 µg/mL (≈ 19.9 µM).
The compound `O=S(=O)(Nc1cc(-c2ccc3nccc(-n4cncn4)c3c2)cnc1Cl)c1ccc(F)cc1F` [Compound 26, N-(5-(4-(1H-1,2,4-triazole-1-yl)quinolin-6-yl)-2-chlorinepyridin-3-yl)-2,4-difluorobenzenesulfonamide] had a melting point of 118 to 121 °C. The compound also showed a 50% inhibitory concentration (IC50) in data set [1] of 0.59 nM. Also, it took 2.35 µg/mL (≈ 4.71 µM) to reach half-maximal inhibition in data set [2] (IC50). The IC50 in data set [3] turned out to be 1.23 µg/mL (≈ 2.47 µM). For the same compound, the IC50 in data set [5] came to 2.8 µg/mL (≈ 5.61 µM).
On to `O=S(=O)(Nc1cc(-c2ccc3nccc(-c4ccc(CN5CCOCC5)cc4)c3c2)cnc1Cl)c1ccc(F)cc1` [Compound 28, N-(5-(4-(4-((morpholino-1-yl)methyl)phenyl)quinolin-6-yl)-2-chlorinepyridin-3-yl)-4-fluorobenzenesulfonamide], for which the IC50 is 1.5 nM in data set [1], 0.47 µg/mL (≈ 0.798 µM) in data set [2], 1.87 µg/mL (≈ 3.17 µM) in data set [3] and 4.55 µg/mL (≈ 7.72 µM) in data set [5].
For `COc1ncc(-c2ccc3nccc(-c4ccc(CN5CCOCC5)cc4)c3c2)cc1NS(=O)(=O)c1ccc(F)cc1` [Compound 29, N-(5-(4-(4-((morpholino-1-yl)methyl)phenyl)quinolin-6-yl)-2-methoxypyridine-3-yl)-4-fluorobenzenesulfonamide] the same measures were 1.6 nM, 0.15 µg/mL (≈ 0.257 µM), 1.37 µg/mL (≈ 2.34 µM) and 15.9 µg/mL (≈ 27.1 µM).
Taken in the same sequence, the figures for `O=S(=O)(Nc1cc(-c2ccc3nccc(-c4ccc(CN5CCOCC5)cc4)c3c2)cnc1Cl)c1ccc(F)cc1F` [Compound 30, N-(5-(4-(4-((morpholino-1-yl)methyl)phenyl)quinolin-6-yl)-2-chlorinepyridin-3-yl)-2,4-difluorobenzenesulfonamide] were 1.1 nM, 0.22 µg/mL (≈ 0.362 µM), 2.39 µg/mL (≈ 3.94 µM) and 1.4 µg/mL (≈ 2.31 µM).
For `COc1ncc(-c2ccc3nccc(-c4ccc(CN(C)CCO)cc4)c3c2)cc1NS(=O)(=O)c1ccc(F)cc1` [Compound 38, N-(5-(4-(4-(((2-hydroxyethyl)(methyl)amino)methyl)phenyl)quinolin-6-yl)-2-methoxypyridine-3-yl)-4-fluorobenzenesulfonamide] the same measures were 4.8 nM, 0.19 µg/mL (≈ 0.332 µM), 1.12 µg/mL (≈ 1.96 µM) and 1.06 µg/mL (≈ 1.85 µM).
Regarding `COc1cccc2c1C(=O)c1c(O)c3c(c(O)c1C2=O)C[C@@](O)(C(=O)CO)C[C@@H]3O[C@H]1C[C@H](N)[C@H](O)[C@H](C)O1` [DOX, Doxorubicin, reference compound], the IC50 in data set [2] turned out to be 0.324 µg/mL (≈ 0.596 µM); in data set [3], 0.0308 µg/mL (≈ 0.0567 µM); in data set [4] it was 0.536 µg/mL (≈ 0.986 µM).

A word on the IC50: it is the concentration needed to halve the response being measured. Higher therefore signals weaker potency in that assay. A word on the melting point: it is the temperature, or range, at which the solid turns liquid.

The values above are taken from patent US20160168118A1, “N-(5-QUINOLIN-6-YL)PYRIDIN-3-YL) BENZSULFAMIDE DERIVATIVES, PREPARATION METHOD AND THERAPEUTIC USE THEREOF” (SECOND MILITARY MEDICAL UNIVERSITY, PLA, priority 2012, published 2016).
